Assay results taken from patent publication US8486939B2, “Pyrimidinyl and 1,3,5-triazinyl benzimidazoles and their use in cancer therapy” (Pathway Therapeutics Inc., priority 2009, dated 2013).
pIC50: −log10 of the molar value. Counter-ions that a name gives are not always drawn.

Experiments:
p110α/p85 = p110α/p85 (Homo sapiens, UniProt P42336); experiment: Inhibition of isolated enzyme (lipid kinase assay, [γ33P]ATP, TLC); type: biochemical; conditions: recombinant enzyme, 100 μM ATP, 1 hr room temperature, average of two experiments
Sequence of p110α/p85 (P42336 whole entry): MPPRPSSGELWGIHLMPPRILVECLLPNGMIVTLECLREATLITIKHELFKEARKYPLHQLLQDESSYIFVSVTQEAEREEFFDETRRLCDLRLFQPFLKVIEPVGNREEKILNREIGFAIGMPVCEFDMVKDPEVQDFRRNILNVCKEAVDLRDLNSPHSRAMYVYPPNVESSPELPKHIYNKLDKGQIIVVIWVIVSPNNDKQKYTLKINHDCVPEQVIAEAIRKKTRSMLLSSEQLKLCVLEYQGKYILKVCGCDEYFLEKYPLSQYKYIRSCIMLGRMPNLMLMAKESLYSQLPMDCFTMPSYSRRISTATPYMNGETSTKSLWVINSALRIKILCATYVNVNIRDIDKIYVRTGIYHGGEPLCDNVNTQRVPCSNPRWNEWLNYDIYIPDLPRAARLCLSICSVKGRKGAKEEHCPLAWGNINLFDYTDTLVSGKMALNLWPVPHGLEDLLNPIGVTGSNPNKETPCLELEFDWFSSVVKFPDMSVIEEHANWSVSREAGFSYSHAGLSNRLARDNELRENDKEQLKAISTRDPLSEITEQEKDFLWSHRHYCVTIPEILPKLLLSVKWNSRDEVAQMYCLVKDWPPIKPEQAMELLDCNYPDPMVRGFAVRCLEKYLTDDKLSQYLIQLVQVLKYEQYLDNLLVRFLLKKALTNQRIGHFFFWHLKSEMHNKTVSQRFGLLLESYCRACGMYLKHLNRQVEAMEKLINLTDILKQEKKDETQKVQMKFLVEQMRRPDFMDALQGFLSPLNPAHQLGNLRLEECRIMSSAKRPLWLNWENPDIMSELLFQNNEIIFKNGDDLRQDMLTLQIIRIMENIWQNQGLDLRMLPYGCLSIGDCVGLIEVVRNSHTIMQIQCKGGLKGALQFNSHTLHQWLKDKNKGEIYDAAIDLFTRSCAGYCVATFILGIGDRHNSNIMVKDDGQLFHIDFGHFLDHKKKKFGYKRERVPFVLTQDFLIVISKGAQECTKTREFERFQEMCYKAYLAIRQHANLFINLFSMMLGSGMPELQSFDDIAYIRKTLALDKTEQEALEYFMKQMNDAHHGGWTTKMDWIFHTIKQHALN
Sequence of p110α/p85 (P27986 whole entry partner): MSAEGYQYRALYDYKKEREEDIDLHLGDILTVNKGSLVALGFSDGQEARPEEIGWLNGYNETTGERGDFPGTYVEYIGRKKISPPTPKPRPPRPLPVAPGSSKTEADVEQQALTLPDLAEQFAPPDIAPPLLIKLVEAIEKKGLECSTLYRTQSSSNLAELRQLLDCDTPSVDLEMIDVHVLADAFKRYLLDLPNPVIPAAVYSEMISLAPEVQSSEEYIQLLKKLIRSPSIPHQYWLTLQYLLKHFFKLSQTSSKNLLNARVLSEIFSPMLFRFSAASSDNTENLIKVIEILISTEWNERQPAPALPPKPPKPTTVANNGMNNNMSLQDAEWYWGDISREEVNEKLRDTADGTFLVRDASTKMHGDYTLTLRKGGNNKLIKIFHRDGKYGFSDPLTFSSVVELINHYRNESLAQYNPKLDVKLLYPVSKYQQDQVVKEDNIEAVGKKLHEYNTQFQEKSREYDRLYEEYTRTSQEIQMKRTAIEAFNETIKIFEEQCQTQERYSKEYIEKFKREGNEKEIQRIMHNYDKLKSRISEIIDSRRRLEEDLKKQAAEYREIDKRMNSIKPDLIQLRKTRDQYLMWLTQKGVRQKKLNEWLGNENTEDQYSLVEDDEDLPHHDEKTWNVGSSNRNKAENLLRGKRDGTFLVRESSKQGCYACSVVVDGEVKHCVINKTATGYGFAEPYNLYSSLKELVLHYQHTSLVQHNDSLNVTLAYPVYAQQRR
Description: (§1) Compounds were evaluated for their ability to inhibit Class I PI 3-kinase enzymes p110δ/p85, p110α/p85, and p110β/p85. Reaction mixtures comprising 0.1 μg of a recombinant enzyme, 10 μg of L-α-phosphatidylinositol, and 2× Lipid Kinase Buffer (40 mM Tris-HCl, pH 7.4, 200 mM NaCl, 1 mM EDTA), which contains either DMSO only as a control or the test compound in DMSO (the final DMSO concentration is 1%), were activated by the addition of an ATP mix (5 mM MgCl2, 100 μM ATP, and 0.1 μL [γ^33P]ATP). Reactions were incubated at room temperature for 1 hr, and then stopped by the addition of 1M HCl. The lipids were then extracted using a two step procedure. Firstly, 200 μL of chloroform/methanol (1:1) was added, the biphasic reactions mixed and centrifuged briefly, and the inorganic phase was removed and discarded. Following this, 80 μL of methanol:HCl (1:1) was added and the same procedure followed. The organic phase (70 μL) was then transferred to a clean 1.6 mL tube and the reactions were dried using a Speedvac, with no heating, for […]. The reactions were spotted onto TLC plates (Merck Ltd) and developed for 1 hr in propanol-1:2 M acetic acid (13:7). The TLC plates were then dried at room temperature and quantified using a phosphorimager (StormImager, Amersham). Nine compound concentrations were used for each test compound to determine its IC50 value. Each experiment was performed twice and the average IC50 value is used herein.

p110δ/p85 = p110δ/p85 (Homo sapiens, UniProt O00329); experiment: as above; type: biochemical; conditions: recombinant enzyme, 100 μM ATP, 1 hr room temperature, average of two experiments
Sequence of p110δ/p85 (O00329 whole entry, species assumed): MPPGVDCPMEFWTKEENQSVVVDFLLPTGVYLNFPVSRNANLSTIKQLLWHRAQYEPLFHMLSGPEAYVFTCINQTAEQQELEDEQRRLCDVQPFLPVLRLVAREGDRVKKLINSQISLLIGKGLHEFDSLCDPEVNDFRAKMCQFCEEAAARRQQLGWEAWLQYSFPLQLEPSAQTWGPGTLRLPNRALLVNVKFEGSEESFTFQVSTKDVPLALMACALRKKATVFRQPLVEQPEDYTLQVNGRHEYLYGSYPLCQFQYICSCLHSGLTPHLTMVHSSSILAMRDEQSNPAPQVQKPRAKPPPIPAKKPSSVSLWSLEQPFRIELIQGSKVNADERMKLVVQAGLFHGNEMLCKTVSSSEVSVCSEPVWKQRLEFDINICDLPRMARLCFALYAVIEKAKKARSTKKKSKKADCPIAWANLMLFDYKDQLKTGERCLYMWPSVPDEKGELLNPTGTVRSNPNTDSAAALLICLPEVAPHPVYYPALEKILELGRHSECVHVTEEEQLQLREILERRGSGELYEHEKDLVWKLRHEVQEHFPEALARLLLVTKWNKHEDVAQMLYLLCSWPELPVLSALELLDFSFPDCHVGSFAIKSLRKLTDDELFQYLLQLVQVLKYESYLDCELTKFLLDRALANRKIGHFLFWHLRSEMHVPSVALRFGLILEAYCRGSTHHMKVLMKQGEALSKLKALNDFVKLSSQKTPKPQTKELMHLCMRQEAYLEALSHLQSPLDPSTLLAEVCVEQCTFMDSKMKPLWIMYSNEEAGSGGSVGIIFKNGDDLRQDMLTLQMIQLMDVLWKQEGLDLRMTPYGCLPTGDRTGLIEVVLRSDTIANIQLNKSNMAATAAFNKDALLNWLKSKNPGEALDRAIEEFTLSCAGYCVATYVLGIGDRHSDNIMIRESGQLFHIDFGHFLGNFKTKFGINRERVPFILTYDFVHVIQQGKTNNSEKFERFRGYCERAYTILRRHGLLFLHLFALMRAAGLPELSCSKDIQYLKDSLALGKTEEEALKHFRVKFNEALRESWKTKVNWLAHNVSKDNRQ
Sequence of p110δ/p85 (P27986 whole entry partner, species assumed): as the sequence (P27986 whole entry partner) above
Description: as §1

Structure (SMILES) | pIC50 (p110α/p85) | pIC50 (p110δ/p85) | melting point
COc1cc(N)cc2c1nc(C(F)F)n2-c1nc(-c2cccnc2)cc(N2CCOCC2)n1 [Example 68, 2-(Difluoromethyl)-4-methoxy-1-[4-(4-morpholinyl)-6-(3-pyridinyl)-2-pyrimidinyl]-1H-benzimidazol-6-ylamine] | > 7.00 | > 7.00 | –
COc1cccc2c1nc(C(F)F)n2-c1nc(Nc2cnc(N(C)CCCN(C)C)nc2)nc(N2CCOCC2)n1 [Example 43, N^5-[4-[2-(difluoromethyl)-4-methoxy-1H-benzimidazol-1-yl]-6-(4-morpholinyl)-1,3,5-triazin-2-yl]-N^2-[3-(dimethylamino)propyl]-N^2-methyl-2,5-pyrimidinediamine] | > 7.00 | > 7.00 | 97 to 99 °C
COc1cccc2c1nc(C(F)F)n2-c1nc(N2CCOCC2)nc2c1ncn2-c1cccnc1 [Example 61, 6-[2-(Difluoromethyl)-4-methoxy-1H-benzimidazol-1-yl]-2-(4-morpholinyl)-9-(3-pyridinyl)-9H-purine] | – | – | 206 to 209 °C
COc1cccc2c1nc(C(F)F)n2-c1nc(-c2cccnc2)nc(N2CCOCC2)n1 [Example 48, 2-(difluoromethyl)-4-methoxy-1-[4-(4-morpholinyl)-6-(3-pyridinyl)-1,3,5-triazin-2-yl]-1H-benzimidazole] | > 7.00 | > 7.00 | 208 to 210 °C
FC(F)c1nc2ccccc2n1-c1nc(-c2cncnc2)cc(N2CCOCC2)n1 [Example 55, 2-[2-(difluoromethyl)-1H-benzimidazol-1-yl]-6-(4-morpholinyl)-4,5′-bipyrimidine] | 6.00 to 7.00 | 6.00 to 7.00 | 209 to 211 °C
COc1cccc2c1nc(C(F)F)n2-c1nc(Nc2cnc(Cl)nc2)nc(N2CCOCC2)n1 [Example 41, N-(2-chloro-5-pyrimidinyl)-4-[2-(difluoromethyl)-4-methoxy-1H-benzimidazol-1-yl]-6-(4-morpholinyl)-1,3,5-triazin-2-amine] | > 7.00 | > 7.00 | 295 °C (dec.)
COc1cccc2c1nc(C(F)F)n2-c1nc(-c2cccnc2)cc(N2CCOCC2)n1 [Example 52, 2-(difluoromethyl)-4-methoxy-1-[4-(4-morpholinyl)-6-(3-pyridinyl)-2-pyrimidinyl]-1H-benzimidazole] | > 7.00 | > 7.00 | 208 to 210 °C
Nc1ncc(-c2cc(N3CCOCC3)nc(-n3c(C(F)F)nc4ccccc43)n2)cn1 [Example 58, 2-[2-(difluoromethyl)-1H-benzimidazol-1-yl]-6-(4-morpholinyl)-4,5′-bipyrimidine-2′-amine] | – | – | 281 to 285 °C
COc1cccc2c1nc(C(F)F)n2-c1nc(-c2cncnc2)cc(N2CCOCC2)n1 [Example 56, 2-[2-(difluoromethyl)-4-methoxy-1H-benzimidazol-1-yl]-6-(4-morpholinyl)-4,5′-bipyrimidine] | > 7.00 | 6.00 to 7.00 | 222 to 224 °C
COc1cc(N)cc2c1nc(C(F)F)n2-c1nc(-c2cn[nH]c2)nc(N2CCOCC2)n1 [Example 66, 2-(Difluoromethyl)-4-methoxy-1-[4-(4-morpholinyl)-6-(1H-pyrazol-4-yl)-1,3,5-triazin-2-yl]-1H-benzimidazol-6-ylamine] | > 7.00 | > 7.00 | –
FC(F)c1nc2ccccc2n1-c1nc(Nc2cncnc2)nc(N2CCOCC2)n1 (as salt: methanesulfonate) [Example 35, 4-[2-(difluoromethyl)-1H-benzimidazol-1-yl]-6-(4-morpholinyl)-N-(5-pyrimidinyl)-1,3,5-triazin-2-amine] | – | – | 163 to 166 °C
COc1cc(N)cc2c1nc(C(F)F)n2-c1nc(-c2ccn(C)n2)nc(N2CCOCC2)n1 [Example 65, 2-(Difluoromethyl)-4-methoxy-1-[4-(1-methyl-1H-pyrazol-3-yl)-6-(4-morpholinyl)-1,3,5-triazin-2-yl]-1H-benzimidazol-6-ylamine] | > 7.00 | > 7.00 | –
COc1cc(N)cc2c1nc(C(F)F)n2-c1nc(N2CCOCC2)nc(-n2cccn2)n1 (as salt: methanesulfonate) [Example 64, 2-(Difluoromethyl)-4-methoxy-1-[4-(4-morpholinyl)-6-(1H-pyrazol-1-yl)-1,3,5-triazin-2-yl]-1H-benzimidazol-6-ylamine] | – | – | > 300 °C
COc1cccc2c1nc(C(F)F)n2-c1nc(-c2cn[nH]c2)nc(N2CCOCC2)n1 [Example 50, 2-(Difluoromethyl)-4-methoxy-1-[4-(4-morpholinyl)-6-(1H-pyrazol-4-yl)-1,3,5-triazin-2-yl]-1H-benzimidazole] | – | – | 289 to 291 °C
COc1cccc2c1nc(C(F)F)n2-c1nc(N2CCOCC2)nc2c1ncn2-c1cncnc1 [Example 62, 6-[2-(Difluoromethyl)-4-methoxy-1H-benzimidazol-1-yl]-2-(4-morpholinyl)-9-(5-pyrimidinyl)-9H-purine] | – | – | 238 to 240 °C
COc1cc(N)cc2c1nc(C(F)F)n2-c1nc(-c2ccn(C)n2)nc(N2CCOCC2)n1 (as salt: methanesulfonate) [Example 65, 2-(Difluoromethyl)-4-methoxy-1-[4-(1-methyl-1H-pyrazol-3-yl)-6-(4-morpholinyl)-1,3,5-triazin-2-yl]-1H-benzimidazol-6-ylamine] | – | – | > 300 °C
COc1cc(N)cc2c1nc(C(F)F)n2-c1nc(-c2cccnc2)cc(N2CCOCC2)n1 (as salt: methanesulfonate) [Example 68, 2-(Difluoromethyl)-4-methoxy-1-[4-(4-morpholinyl)-6-(3-pyridinyl)-2-pyrimidinyl]-1H-benzimidazol-6-ylamine] | – | – | 246 °C (dec.)
COc1cccc2c1nc(C(F)F)n2-c1nc(N2CCOCC2)nc(-n2ccnc2)n1 [Example 67, 2-(Difluoromethyl)-1-[4-(1H-imidazol-1-yl)-6-(4-morpholinyl)-1,3,5-triazin-2-yl]-4-methoxy-1H-benzimidazole] | – | – | 272 to 275 °C
COc1cc(N)cc2c1nc(C(F)F)n2-c1nc(-c2cn[nH]c2)nc(N2CCOCC2)n1 (as salt: methanesulfonate) [Example 66, 2-(Difluoromethyl)-4-methoxy-1-[4-(4-morpholinyl)-6-(1H-pyrazol-4-yl)-1,3,5-triazin-2-yl]-1H-benzimidazol-6-ylamine] | – | – | > 300 °C
COc1cccc2c1nc(C(F)F)n2-c1nc(N2CCOCC2)c2ncn(-c3cccnc3)c2n1 [Example 59, 2-[2-(difluoromethyl)-4-methoxy-1H-benzimidazol-1-yl]-6-(4-morpholinyl)-9-(3-pyridinyl)-9H-purine] | – | – | 229 to 231 °C
COc1ccc(-c2cc(N3CCOCC3)nc(-n3c(C(F)F)nc4ccccc43)n2)cn1 [Example 53] | – | – | 224 to 226 °C
COc1cc(N)cc2c1nc(C(F)F)n2-c1nc(N2CCOCC2)nc(-n2cccn2)n1 [Example 64, 2-(Difluoromethyl)-4-methoxy-1-[4-(4-morpholinyl)-6-(1H-pyrazol-1-yl)-1,3,5-triazin-2-yl]-1H-benzimidazol-6-ylamine] | > 7.00 | > 7.00 | –
COc1cccc2c1nc(C(F)F)n2-c1nc(Nc2cccnc2)nc(N2CCOCC2)n1 (as salt: methanesulfonate) [Example 2, 4-[2-(difluoromethyl)-4-methoxy-1H-benzimidazol-1-yl]-6-(4-morpholinyl)-N-(3-pyridinyl)-1,3,5-triazin-2-amine] | – | – | 279 to 282 °C
